This is an account of results in patent US7723523B2, “Tetrahydropyridothiophenes” (4SC AG, priority 2004, dated 2010).

As a reminder, the IC50 is the concentration at which inhibition is half-maximal.

Each structure is given as a SMILES string.

The test system of experiment [1] is RKO (RKOp27) human colon adenocarcinoma cells. The experiment can be described thus: Alamar Blue cell viability assay, anti-proliferative/cytotoxic activity on proliferating RKOp27 cells. Conditions: absence of Ponasterone A, 72 hours incubation, read-out: IC50 RKO p27 proliferating. In kind it is cell-based. In short, it runs like this:
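IC50 values come from concentration-effect curves of Alamar Blue fluorescence (544/590 nm), relative to untreated controls set at 100%. Cells were RKOp27, seeded at 4000/well in DMEM with 10% FCS and exposed from 24 h post-seeding for 72 h (37 °C, 5% CO2) to semi-log dilutions, each run in quadruplicate.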

Experiment [2] deals with RKO colon adenocarcinoma cells (RKOp27) arrested by expression of ectopic p27Kip1. Briefly: Alamar Blue cell viability assay on RKOp27 cells arrested by Ponasterone A-induced p27Kip1 (cell cycle specific mode of action). Type of experiment: cell-based. To be noted: Homo sapiens, RKOp27, 72 h, cells arrested by p27Kip1 induced with 10 μM Ponasterone A, 72 hours incubation, read-out: IC50 RKO p27 arrested. In outline:
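Viability measured by Alamar Blue fluorescence (ex 544, em 590 nm) after 72 h, 37 °C compound exposure in quadruplicate, normalized to untreated cells as 100%. Cells were p27Kip1-arrested RKOp27, induced with 10 μM Ponasterone A at seeding; compound added 24 h later.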
In general terms: Alamar Blue is a resazurin reagent that responds to reducing activity.

As to `N#Cc1c(NC(=O)/C=C/c2ccccc2)sc2c1CCN(C(=O)OCCCc1cccnc1)C2` [Example 125, 3-Cyano-2-((E)-3-phenyl-allanoylamino)-4,7-dihydro-5H-thieno[2,3-c]pyridine-6-carboxylic acid 3-pyridin-3-yl-propyl ester], the 50% inhibitory concentration (IC50) was at most 2 µM in experiment [1] and at least 100 µM in experiment [2].
For `COCCOCC(=O)N1CCc2c(sc(NC(=O)/C=C/c3ccccc3OC)c2C#N)C1` [Example 209, (E)-N-{3-Cyano-6-[2-(2-methoxy-ethoxy)-ethanoyl]-4,5,6,7-tetrahydro-thieno[2,3-c]pyridin-2-yl}-3-(2-methoxy-phenyl)-acrylamide] the same measures were at most 2 µM and at least 100 µM.
In the case of `COCCOCC(=O)N1CCc2c(sc(NC(=O)/C=C/c3ccccc3)c2C#N)C1` [Example 175, (E)-N-{3-Cyano-6-[2-(2-methoxy-ethoxy)-ethanoyl]-4,5,6,7-tetrahydro-thieno[2,3-c]pyridin-2-yl}-3-phenyl-acrylamide], the IC50 in experiment [1] was at most 2 µM; in experiment [2], at least 100 µM.
The corresponding values for `N#Cc1c(NC(=O)/C=C/c2ccccc2)sc2c1CCN(C(=O)Cc1c[nH]c3ccccc13)C2` [Example 182, (E)-N-[3-Cyano-6-(2-1H-indol-3-yl-ethanoyl)-4,5,6,7-tetrahydro-thieno[2,3-c]pyridin-2-yl]-3-phenyl-acrylamide] are at most 0.5 µM and at least 50 µM.
On to `N#Cc1c(NC(=O)/C=C/c2cccnc2)sc2c1CCN(C(=O)OCCCc1ccccc1)C2` [Example 148, 3-Cyano-2-((E)-3-pyridin-3-yl-allanoylamino)-4,7-dihydro-5H-thieno[2,3-c]pyridine-6-carboxylic acid 3-phenyl-propyl ester], for which the IC50 in experiment [1] is at most 2 µM; in experiment [2], at least 100 µM.
The corresponding values for `N#Cc1c(NC(=O)/C=C/c2ccccc2)sc2c1CCN(C(=O)Cc1cccnc1)C2` [Example 183, (E)-N-[3-Cyano-6-(2-pyridin-3-yl-ethanoyl)-4,5,6,7-tetrahydro-thieno[2,3-c]pyridin-2-yl]-3-phenyl-acrylamide] are at most 2 µM and at least 100 µM.
The corresponding values for `CC1(C)OCC(COC(=O)N2CCc3c(sc(NC(=O)/C=C/c4cccnc4)c3C#N)C2)O1` (stereo not shown) [Example 164, 3-Cyano-2-((E)-3-pyridin-3-yl-allanoylamino)-4,7-dihydro-5H-thieno[2,3-c]pyridine-6-carboxylic acid 2,2-dimethyl-[1,3]dioxolan-4-ylmethyl ester] are at most 2 µM and at least 100 µM.
For `N#Cc1c(NC(=O)/C=C/c2cccnc2)sc2c1CCN(C(=O)OCc1cccnc1)C2` [Example 150, 3-Cyano-2-((E)-3-pyridin-3-yl-allanoylamino)-4,7-dihydro-5H-thieno[2,3-c]pyridine-6-carboxylic acid pyridin-3-ylmethyl ester] the same measures were at most 2 µM and at least 100 µM.
On to `CCNC(=O)N1CCc2c(sc(NC(=O)/C=C/c3cccnc3)c2C#N)C1` [Example 38, 3-Cyano-2-((E)-3-pyridin-3-yl-allanoylamino)-4,7-dihydro-5H-thieno[2,3-c]pyridine-6-carboxylic acid ethylamide], for which the 50% inhibitory concentration (IC50) in experiment [1] is at most 2 µM; in experiment [2], over 100 µM.
The corresponding values for `COc1cccc(OC(=O)N2CCc3c(sc(NC(=O)/C=C/c4cccnc4)c3C#N)C2)c1` [Example 45, 3-Cyano-2-((E)-3-pyridin-3-yl-allanoylamino)-4,7-dihydro-5H-thieno[2,3-c]pyridine-6-carboxylic acid 3-methoxy-phenyl ester] are at most 2 µM and over 100 µM.
The corresponding values for `CCOC(=O)N1CCc2c(sc(NC(=O)/C=C/c3cccc4c3OC(F)(F)O4)c2C#N)C1` [Example 230, 3-Cyano-2-[(E)-3-(2,2-difluoro-benzo[1,3]dioxol-4-yl)-allanoylamino]-4,7-dihydro-5H-thieno[2,3-c]pyridine-6-carboxylic acid ethyl ester] are at most 2 µM and at least 100 µM.
The corresponding values for `CCOC(=O)N1CCc2c(sc(NC(=O)/C=C/c3ccc(Cl)cc3Cl)c2C#N)C1` [Example 28, 3-Cyano-2-[(E)-3-(2,4-dichloro-phenyl)-allanoylamino]-4,7-dihydro-5H-thieno[2,3-c]pyridine-6-carboxylic acid ethyl ester] are at most 2 µM and over 100 µM.
As for `CN(C)C(=O)CCC(=O)N1CCc2c(sc(NC(=O)/C=C/c3ccccc3)c2C#N)C1` [Example 178, 4-[3-Cyano-2-((E)-3-phenyl-allanoylamino)-4,7-dihydro-5H-thieno[2,3-c]pyridin-6-yl]-N,N-dimethyl-4-oxo-butyramide], the half-maximal inhibitory concentration (IC50) in experiment [1] was at most 2 µM; in experiment [2] it was at least 100 µM.
For `CCOC(=O)N1CCc2c(sc(NC(=O)/C=C/c3ccc(N(C)C)cc3)c2C#N)C1` [Example 26, 3-Cyano-2-[(E)-3-(4-dimethylamino-phenyl)-allanoylamino]-4,7-dihydro-5H-thieno[2,3-c]pyridine-6-carboxylic acid ethyl ester] the same measures were at most 2 µM and over 100 µM.
With `CCOc1ccccc1/C=C/C(=O)Nc1sc2c(c1C#N)CCN(C(=O)OCCc1ccccn1)C2` [Example 239, 3-Cyano-2-[(E)-3-(2-ethoxy-phenyl)-allanoylamino]-4,7-dihydro-5H-thieno[2,3-c]pyridine-6-carboxylic acid 2-pyridin-2-yl-ethyl ester], the values for the IC50 in experiment [1] and in experiment [2] were at most 2 µM and at least 100 µM, respectively.
As to `CCOc1ccccc1/C=C/C(=O)Nc1sc2c(c1C#N)CCN(C(=O)OCc1ccncc1)C2` [Example 238, 3-Cyano-2-[(E)-3-(2-ethoxy-phenyl)-allanoylamino]-4,7-dihydro-5H-thieno[2,3-c]pyridine-6-carboxylic acid pyridin-4-ylmethyl ester], the IC50 in experiment [1] is at most 2 µM; in experiment [2], at least 100 µM.
On to `N#Cc1c(NC(=O)/C=C/c2ccccc2)sc2c1CCN(C(=O)CCc1c[nH]c3ccccc13)C2` [Example 171, (E)-N-[3-Cyano-6-(3-1H-indol-3-yl-propanoyl)-4,5,6,7-tetrahydro-thieno[2,3-c]pyridin-2-yl]-3-phenyl-acrylamide], for which the IC50 in experiment [1] was at most 2 µM; in experiment [2], at least 100 µM.
`CCOc1ccccc1/C=C/C(=O)Nc1sc2c(c1C#N)CCN(C(=O)Cc1cccnc1)C2` [Example 219, (E)-N-[3-Cyano-6-(2-pyridin-3-yl-ethanoyl)-4,5,6,7-tetrahydro-thieno[2,3-c]pyridin-2-yl]-3-(2-ethoxy-phenyl)-acrylamide]: the IC50 in experiment [1] was at most 2 µM; in experiment [2], at least 100 µM.
For `N#Cc1c(NC(=O)/C=C/c2cccnc2)sc2c1CCN(C(=O)OCCN1CCOCC1)C2` [Example 156, 3-Cyano-2-((E)-3-pyridin-3-yl-allanoylamino) 4,7-dihydro-5H-thieno[2,3-c]pyridine-6-carboxylic acid 2-morpholin-4-yl-ethyl ester] the same measures were at most 2 µM and at least 100 µM.
The corresponding values for `CCOC(=O)N1CCc2c(sc(NC(=O)/C=C/c3ccc[nH]3)c2C#N)C1` [Example 103, 3-Cyano-2-((E)-3-1-H-pyrrol-2-yl-allanoylamino)-4,7-dihydro-5H-thieno[2,3-c]pyridine-6-carboxylic acid ethylester] are at most 2 µM and at least 100 µM.
